Experiments:
Assay in all cases: drug sensitivity score (DSS2, normalised partial AUC of dose-response, 72 h CellTiter-Glo viability) (DSS (dimensionless)); higher = more sensitive (stronger growth inhibition / cytotoxicity); extreme values may be limits of the assay
22Rv1 = tested on: 22Rv1
Summary of the method: (§1)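 Five doses spanning a 10,000-fold range were pre-dispensed into 384-well plates, into which low-passage primary prostate cancer-associated fibroblasts, PF179T, WPMY-1, LNCaP and 22Rv1 cells were seeded. After 72 h, CellTiter-Glo 2.0 luminescence measured viability, scaled to vehicle and positive-control wells. Higher values of the drug sensitivity score, a BREEZE-computed partial area under the fitted logistic dose–response curve divided by the log of the upper asymptote, mean greater sensitivity.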

CAF#1 = tested on: CAF#1 (primary prostate cancer-associated fibroblasts of myCAF-like type)
Summary of the method: as §1

CAF#6 = tested on: CAF#6 (primary prostate cancer-associated fibroblasts of iCAF-like type)
Summary of the method: as §1

CAF#3 = tested on: CAF#3 (primary prostate cancer-associated fibroblasts of myCAF-like type)
Summary of the method: as §1

CAF#4 = tested on: CAF#4 (primary prostate cancer-associated fibroblasts of iCAF-like type)
Summary of the method: as §1

CAF#5 = tested on: CAF#5 (primary prostate cancer-associated fibroblasts of myCAF-like type)
Summary of the method: as §1

WPMY-1 = tested on: WPMY-1
Summary of the method: as §1

CAF#2 = tested on: CAF#2 (primary prostate cancer-associated fibroblasts of iCAF-like type)
Summary of the method: as §1

PF179T = tested on: PF179T
Summary of the method: as §1

CAF#7 = tested on: CAF#7 (primary prostate cancer-associated fibroblasts of myCAF-like type)
Summary of the method: as §1

LNCAP = tested on: LNCAP
Summary of the method: as §1

Row | SMILES | drug sensitivity score (22Rv1) | drug sensitivity score (CAF#1) | drug sensitivity score (CAF#6) | drug sensitivity score (CAF#3) | drug sensitivity score (CAF#4) | drug sensitivity score (CAF#5) | drug sensitivity score (WPMY-1) | drug sensitivity score (CAF#2) | drug sensitivity score (PF179T) | drug sensitivity score (CAF#7) | drug sensitivity score (LNCAP)
1 | OC[C@H]1O[C@@H](n2cnc3c2N=CNC[C@H]3O)C[C@@H]1O [Pentostatin] (tested concentration range 1-10000 nM) | 0 | 0 | 0 | 0 | 0 | 0 | 0 | 0 | 0 | 0 | 0
2 | NS(=O)(=O)OC[C@@H]1C[C@@H](n2ccc3c(N[C@H]4CCc5ccccc54)ncnc32)C[C@@H]1O [Pevonedistat] (tested concentration range 1-10000 nM) | 18.9 | 4.4 | 5.7 | 0 | 7 | 9 | 12.6 | 13 | 6.4 | 5 | 29.6
3 | FC(F)(F)c1ccc(CNc2ccc(Cc3c[nH]c4ncc(Cl)cc34)cn2)cn1 [Pexidartinib] (tested concentration range 1-10000 nM) | 0 | 4.8 | 0 | 1.2 | 3 | 5.1 | 0.6 | 5.9 | 1.7 | 2.7 | 1.4
4 | CS(=O)(=O)N1CCN(Cc2cc3nc(-c4cccc5[nH]ncc45)nc(N4CCOCC4)c3s2)CC1 [Pictilisib] (tested concentration range 1-10000 nM) | 16.1 | 11.7 | 7.7 | 10.9 | 10.9 | 12 | 12 | 11.5 | 11.2 | 9.3 | 13.7
5 | CC[C@@H]1C(=O)OC[C@@H]1Cc1cncn1C [Pilocarpine] (tested concentration range 4-40000 nM) | 0 | 0.8 | 0 | 0 | 0 | 1.5 | 0 | 0 | 0 | 0 | 0
6 | CC(C)N(C[C@H]1O[C@@H](n2cnc3c(N)ncnc32)[C@H](O)[C@@H]1O)[C@H]1C[C@@H](CCc2nc3cc(C(C)(C)C)ccc3[nH]2)C1 [Pinometostat] (tested concentration range 0.1-1000 nM) | 0 | 0 | 0 | 1.5 | 0 | 0 | 0 | 0 | 0 | 0 | 0
7 | Cc1ccc(=O)n(-c2ccccc2)c1 [Pirfenidone] (tested concentration range 1-10000 nM) | 0 | 0 | 0 | 0 | 0 | 0 | 0 | 0 | 0 | 0 | 0
8 | Nc1cccc2c1C(=O)N(C1CCC(=O)NC1=O)C2=O (stereo unspecified) [Pomalidomide] (tested concentration range 1-10000 nM) | 0 | 0 | 0 | 0 | 0 | 0 | 0 | 0 | 0 | 0 | 0
9 | C=CC(=O)N1CCC(Oc2cc3c(Nc4ccc(Cl)c(Cl)c4F)ncnc3cc2OC)CC1 [Poziotinib] (tested concentration range 0.1-1000 nM) | 0.5 | 0 | 0 | 0.3 | 0 | 0 | 1 | 0 | 0 | 0 | 3.9
10 | CCCCc1nc2cc(/C=C/C(=O)NO)ccc2n1CCN(CC)CC [Pracinostat] (tested concentration range 1-10000 nM) | 20 | 10.7 | 9.2 | 9 | 10.6 | 10.3 | 20 | 13.7 | 9.9 | 8.4 | 20.3
11 | CC[C@H](C)C(=O)O[C@H]1C[C@H](O)C=C2C=C[C@H](C)[C@H](CC[C@@H](O)C[C@@H](O)CC(=O)O)[C@H]21 [Pravastatin] (tested concentration range 1-10000 nM) | 0 | 0 | 0 | 0 | 0 | 0 | 0 | 0.3 | 0 | 0 | 0
12 | C[C@]12C=CC(=O)C=C1CC[C@@H]1[C@@H]2[C@@H](O)C[C@@]2(C)[C@H]1CC[C@]2(O)C(=O)CO [Prednisolone] (tested concentration range 1-10000 nM) | 0 | 0 | 0 | 0 | 0 | 0 | 0 | 0 | 0 | 0 | 0
13 | COc1cccc(OCCCN)c1-c1cc(Nc2cnc(C#N)cn2)n[nH]1 [Prexasertib] (tested concentration range 1-10000 nM) | 24.4 | 8.6 | 6.8 | 4.9 | 8.7 | 9.1 | 29.7 | 16.6 | 14.5 | 5.4 | 24.3
14 | CC(C)(C)c1cc(NC(=O)Nc2ccc(-c3cn4c(n3)sc3cc(OCCN5CCOCC5)ccc34)cc2)no1 [Quizartinib] (tested concentration range 0.1-1000 nM) | 0 | 0.3 | 0 | 0 | 0 | 1.5 | 1.4 | 2.3 | 0 | 0 | 0
15 | Nc1cc(F)ccc1NC(=O)/C=C/c1cnn(C/C=C/c2ccccc2)c1 [RGFP966] (tested concentration range 1-10000 nM) | 1.8 | 3.1 | 2.1 | 2.6 | 3.3 | 3.1 | 2.2 | 3.2 | 3.8 | 2.7 | 8.3
16 | COC(=O)c1ccc([C@H]2c3[nH]c4ccccc4c3C[C@H](C(=O)OC)N2C(=O)CCl)cc1 [RSL3] (tested concentration range 1-10000 nM) | 0 | 0.7 | 0.6 | 2.5 | 0 | 0.3 | 0 | 3 | 0 | 9.5 | 0.9
17 | Cc1cn(-c2cc(NC(=O)c3ccc(C)c(Nc4nccc(-c5cnccn5)n4)c3)cc(C(F)(F)F)c2)cn1 [Radotinib] (tested concentration range 1-10000 nM) | 0 | 0.5 | 0 | 0 | 0.1 | 0 | 0 | 0 | 0 | 0 | 0.3
18 | CC(C)(C)Cn1c(N)nc2ccc(-c3[nH]c(C(C)(C)C)nc3-c3ccc(F)cc3)nc21 [Ralimetinib] (tested concentration range 1-10000 nM) | 3.8 | 0.8 | 0.1 | 2.1 | 0.1 | 0 | 2.8 | 1.9 | 0 | 0 | 11.2
19 | O=C(c1ccc(OCCN2CCCCC2)cc1)c1c(-c2ccc(O)cc2)sc2cc(O)ccc12 [Raloxifene] (tested concentration range 1-10000 nM) | 2.9 | 0 | 0.4 | 2.4 | 0.5 | 0.2 | 5.8 | 0.7 | 0.8 | 0.5 | 2.9
20 | Cc1nc(=O)c2cc(CN(C)c3ccc(C(=O)N[C@@H](CCC(=O)O)C(=O)O)s3)ccc2[nH]1 [Raltitrexed] (tested concentration range 0.1-1000 nM) | 0 | 3.3 | 0.2 | 0 | 0.8 | 2.8 | 14 | 4.4 | 0.3 | 0 | 11.1
21 | CNC(=O)c1cc(Oc2ccc(NC(=O)Nc3ccc(Cl)c(C(F)(F)F)c3)c(F)c2)ccn1 [Regorafenib] (tested concentration range 1-10000 nM) | 6 | 2.8 | 1 | 3.7 | 2.4 | 3.2 | 3.8 | 3.4 | 1.9 | 2.7 | 7.2
22 | CCOC(=O)C1=CCCC[C@H]1S(=O)(=O)Nc1ccc(F)cc1Cl [Resatorvid] (tested concentration range 1-10000 nM) | 0 | 0 | 3.6 | 5.7 | 0 | 0 | 0 | 0 | 0 | 0.3 | 0.4
23 | CCOCc1nc2c(N)nc3ccccc3c2n1CC(C)(C)O [Resiquimod] (tested concentration range 1-10000 nM) | 0 | 0 | 0 | 0 | 0 | 0 | 0 | 0.4 | 0 | 0 | 0
24 | CN(C)Cc1ccc(S(=O)(=O)n2ccc(/C=C/C(=O)NO)c2)cc1 [Resminostat] (tested concentration range 1-10000 nM) | 12.3 | 4.4 | 5.9 | 6 | 6 | 4.6 | 13.6 | 5.9 | 6 | 4.7 | 12.2
25 | CN(C)C(=O)c1cc2cnc(Nc3ccc(N4CCNCC4)cn3)nc2n1C1CCCC1 [Ribociclib] (tested concentration range 1-10000 nM) | 5 | 0 | 2.4 | 2.9 | 2.7 | 2.5 | 0 | 4.6 | 3.7 | 3 | 7.7
26 | C=CC(=O)Nc1cccc(Nc2nc(Nc3ccc(N4CCN(C(C)=O)CC4)cc3OC)ncc2C(F)(F)F)c1 [Rociletinib] (tested concentration range 0.5-5000 nM) | 6 | 6.6 | 2.6 | 2.1 | 6.8 | 5.2 | 7 | 8.3 | 5 | 4 | 2.6
